We go through 1 substance from publication PMC9103351, “Effects of the Bark Resin Extract of Garcinia nigrolineata on Chronic Stress-Induced Memory Deficit in Mice Model and the In Vitro Monoamine Oxidases and β-Amyloid Aggregation Inhibitory Activities of Its Prenylated Xanthone Constituents” (Molecules, 2022).

In assay [1] the test system is UCMS mice. The assay is described as follows: Lipid peroxidation (TBARs, MDA) in frontal cortex and hippocampus of UCMS mice. The class given is in vivo, ICR mice. To be noted: 100 mg/kg/day. How it is done: (§1) Five-week-old male ICR mice (weight: 20–30 g), which were acquired from Nomura Siam International (Pathumwan, Bangkok, Thailand), were maintained at the Animal Unit of the Faculty of Pharmaceutical Sciences, Khon Kaen University. Mice were cared for in accordance with the Guiding Principles for the Care and Use of Animals (NIH Publications No. 80–23, revised in 2011). The facilities sustained a 12 h light/dark cycle, constant temperature (22 ± 2 °C), and humidity (45 ± 2%), with full access to food and drink. The current research was authorized by the Animal Ethics Committee for Use and Care of Khon Kaen University (IACUC-KKU-121/64)
(§2) Mice in the stress groups received mild stressors for 6 weeks. […]
The lipid peroxidation was measured in the homogenates of the hippocampus and frontal cortex by using TBARs assay as previously described by Khamphukdee et al.. […] The intensity of the pink-colored complex MDA-TBA condensation indicated the extent of a lipid peroxidation, and their protein contents were quantified by the Bradford assay. The absorbance of the MDA-TBA complex was measured by UV/Visible spectrophotometer (Perkin Elmer Inc., Waltham, MA, USA) at 532 nm. Levels of the MDA were calculated from the MDA standard and presented as nmol MDA/mg protein.

Assay [2] concerns UCMS mice. The assay is described as follows: Y-maze test in UCMS mice. The conditions noted are these: 100 mg/kg/day p.o., vs vehicle-treated UCMS group. The class given is in vivo, ICR mice. The method, then:
as §1, §2
Y-maze test was used to evaluate spontaneous alternation related to a sudden recall, a performance that was previously described by Kraeuter et al. with some modification. […] Mice were allowed to explore the maze for 4 min, during which their number and sequence of arms visits and spontaneous alternations were recorded. […] The measure of the animal recalling a memory is the percentage alternation, which was calculated by the following equation:% Alternation = [(Number of alternations)/(Total arm entries − 2)] × 100

Take vitamin E: the “UCMS-induced lipid peroxidation (MDA level)” value in the assay on UCMS mice [1] is given as “significant neuroprotection”. Moreover, the “percentage of spontaneous alternation (Y-maze)” value with UCMS mice [2] is on record as “significantly increased”.
